# System: human peripheral blood lymphocytes
# Test: Suppression of human PBL proliferation in vitro ([3H]thymidine incorporation), with or without anti-CD3 (X-35)
# Format: cell-based
# Protocol: One measure of immunosuppression is suppression of stimulated peripheral blood lymphocyte (PBL) proliferation in vitro. In the assay detailed in Example 3, PBLs were activated in vitro by addition of anti-CD3 monoclonal antibody (X-35 antibody). At the same time, purified tripterinin or vehicle (control) was added to each culture, at selected concentrations. After 72 hours incubation, tritiated thymidine was added to the culture medium, and thymidine incorporation into DNA was assayed, as a measure of DNA synthesis associated with cell proliferation.
# The ability of tripterifordin to inhibit anti-CD3 stimulated PBL proliferation was assayed at concentrations of 0, 0.78, 3.13, and 12.5 μg/ml, with the results shown in FIG. 9.
# Human peripheral blood lymphocytes were prepared using an established method (Boyum). Human blood buffy coat samples, approximately 25 ml/donor, were obtained from the Stanford University Medical Center Blood Bank. Using sterile technique, the buffy coat samples were gently resuspended in a total volume of 100 ml with the addition of calcium and magnesium free Hank's balanced salt solution (HBSS, obtained from Gibco) at room temperature. A volume of 25 ml of the cell suspension was then layered onto 15 ml of Ficoll-Pacque (Pharmacia LKB Biotechnology, Inc.) in a 50 ml conical centrifuge tube. Tubes were centrifuged in a Beckman GPR tabletop centrifuge (GH-3.7 Rotor) at 400×g for 30 minutes at 15° C.
# Following centrifugation, the PBL suspensions at the interfaces were transferred to new 50 ml tubes using a transfer pipette, and the PBL samples were resuspended in a total volume of 45 ml HBSS and centrifuged at 354×g for 10 minutes at 15° C. Supernatants were discarded. PBL's were resuspended in 10 ml HBSS, combined to make a total of 45 ml HBSS, and centrifuged at 265×g for 10 minutes at 15° C. The cell pellets were suspended in 10 ml of X-Vivo tissue culture medium (Bio Whittaker) and counted using a hemocytometer. Tissue culture medium was then added to achieve a final cell concentration of 1× 10^6 cells/ml. Additional dilutions were carried out as required for each assay.
# Assays were carried out in 96 well sterile tissue culture plates (Costar 3790 and Costar 3595). A volume of 150 μl of X-Vivo medium or sterile distilled water was added to the outer wells of the plate to prevent evaporation of medium within the experimental wells. PBL's from 2 different donors were used in parallel in all experiments. A volume of 100 μl PBL suspension was added to each well using a multichannel pipette. Plates were incubated in an atmosphere of 93% air/7% CO2 in a tissue culture incubator at 37° C. X-35 (AMAC #0178), an anti CD-3 surface antigen antibody, was used at 5 ng/ml to stimulate PBL proliferation.
# Tripterinin or tripterifordin was dissolved in ethanol (10 mg/ml) and then diluted in sterile X-Vivo tissue culture medium to obtain the final concentrations required for each experiment.
# Four hours prior to the conclusion of incubation, 50 μl of X-Vivo tissue culture medium containing 8 μCi/ml [^3 H]Thymidine (Amersham, 49 Ci/mmol) was added to each tissue culture well. After 72 hours total incubation time, the cells were removed from the tissue culture wells and applied to filter paper using a cell harvester (Brandel Model MB-24). The filter paper was dried for one hour under a heat lamp and then cut into 1 cm discs. Each sample was placed in a scintillation vial containing 2 ml of scintillation fluid (Biosafe, Research Products International Corp.). Samples were counted in a Beckman LS 6000SC scintillation counter.
smiles,measurement,setting,value
C[C@]12CCC[C@]3(COC1=O)[C@@H]2CC[C@@]12C[C@@H](CC[C@]13O)[C@](C)(O)C2 [tripterinin],inhibition of PBL proliferation,"0.78 μg/ml tripterinin, unstimulated and anti-CD3 stimulated PBLs",substantially complete inhibition
same,Half maximal inhibition of PBL proliferation,"FIG. 8, 72 h",approximately 0.5 μg/ml
same,inhibitory effect on PBL proliferation,"stimulated and unstimulated (tripterinin), FIG. 9 (tripterifordin)",inhibited PBL proliferation
same,"inhibition of PBL proliferation, dose dependence",unstimulated and anti-CD3 stimulated PBLs,dose dependent inhibition
